Results taken from patent publication US11292770B2, “Pyridazinone herbicides” (FMC Corporation, priority 2017, dated 2022).

Assays:
Format in all cases: in vivo
kochia (Kochia scoparia) [1] = test: Test A preemergence, kochia; details: 0 to 100 scale
Description: (§1) Seeds of plant species selected from barnyardgrass (Echinochloa crus-galli), kochia (Kochia scoparia), ragweed (common ragweed, Ambrosia elation), ryegrass, Italian (Italian ryegrass, Lolium multiflorum), foxtail, green (green foxtail, Setaria viridis), and pigweed (Amaranthus retroflexus) were planted into a blend of loam soil and sand and treated preemergence with a directed soil spray using test chemicals formulated in a non-phytotoxic solvent mixture which included a surfactant. At the same time, plants selected from these weed species and also wheat (Triticum aestivum), corn (Zea mays), blackgrass (Alopecurus myosuroides), and galium (catchweed bedstraw, Galium aparine) were planted in pots containing the same blend of loam soil and sand and treated with postemergence applications of test chemicals formulated in the same manner Plants ranged in height from 2 to 10 cm and were in the one- to two-leaf stage for the postemergence treatment. Treated plants and untreated controls were maintained in a greenhouse for approximately 10 d, after which time all treated plants were compared to untreated controls and visually evaluated for injury. Plant response ratings, summarized in Table A, are based on a 0 to 100 scale where 0 is no effect and 100 is complete control. A dash (—) response means no test result.

[2] = test system: sedge, umbrella (small-flower umbrella sedge, Cyperus difformis); test: Test B flooded paddy test, sedge, umbrella; details: Flood, 250 g ai/ha; scale of 0 to 100
Protocol: (§2) Plant species in the flooded paddy test selected from rice (Oryza sativa), sedge, umbrella (small-flower umbrella sedge, Cyperus difformis), ducksalad (Heteranthera limosa), and barnyardgrass (Echinochloa crus-galli) were grown to the 2-leaf stage for testing. At the time of treatment, test pots were flooded to 3 cm above the soil surface, treated by application of test compounds directly to the paddy water, and then maintained at that water depth for the duration of the test. Treated plants and controls were maintained in a greenhouse for 13 to 15 d, after which time all species were compared to controls and visually evaluated. Plant response ratings, summarized in Table B, are based on a scale of 0 to 100 where 0 is no effect and 100 is complete control. A dash (—) response means no test result.

[3] = test system: ducksalad (Heteranthera limosa); test: Test B flooded paddy test, ducksalad; details: Flood, 250 g ai/ha; scale of 0 to 100
Protocol: as §2

[4] = test system: blackgrass (Alopecurus myosuroides); test: Test A postemergence, blackgrass; details: 0 to 100 scale
Description: as §1

Foxtail, Giant [5] = test: Test A preemergence, foxtail, giant; details: 0 to 100 scale
[6] = test system: pigweed (Amaranthus retroflexus); test: Test A preemergence, pigweed; details: 0 to 100 scale
Description: as §1

[7] = test system: barnyardgrass (Echinochloa crus-galli); test: Test B flooded paddy test, barnyardgrass; details: Flood, 250 g ai/ha; scale of 0 to 100, 0 no effect, 100 complete control
Protocol: as §2

[8] = test system: barnyardgrass (Echinochloa crus-galli); test: Test A preemergence, barnyardgrass; details: 0 to 100 scale
Description: as §1

rice (Oryza sativa) = test: Test B flooded paddy test, rice; details: Flood, 250 g ai/ha; scale of 0 to 100
Protocol: as §2

[9] = test system: pigweed (Amaranthus retroflexus); test: Test A postemergence, pigweed; details: 0 to 100 scale
Description: as §1

[10] = test system: ryegrass, Italian (Italian ryegrass, Lolium multiflorum); test: Test A preemergence, ryegrass, Italian; details: 0 to 100 scale
Description: as §1

Foxtail, Giant [11] = test: Test A postemergence, foxtail, giant; details: 0 to 100 scale
[12] = test system: ragweed (common ragweed, Ambrosia elation); test: Test A postemergence, ragweed; details: 0 to 100 scale
Description: as §1

corn (Zea mays) = test: Test A postemergence, corn; details: 0 to 100 scale
Description: as §1

[13] = test system: barnyardgrass (Echinochloa crus-galli); test: Test A postemergence, barnyardgrass; details: 0 to 100 scale
Description: as §1

kochia (Kochia scoparia) [14] = test: Test A postemergence, kochia; details: 0 to 100 scale
Description: as §1

[15] = test system: wheat (Triticum aestivum); test: Test A postemergence, wheat; details: 0 to 100 scale
Description: as §1

[16] = test system: ryegrass, Italian (Italian ryegrass, Lolium multiflorum); test: Test A postemergence, ryegrass, Italian; details: 0 to 100 scale
Description: as §1

[17] = test system: galium (catchweed bedstraw, Galium aparine); test: Test A postemergence, galium; details: 0 to 100 scale
Description: as §1

[18] = test system: ragweed (common ragweed, Ambrosia elation); test: Test A preemergence, ragweed; details: 0 to 100 scale
Description: as §1

[19] = 125 g ai/ha, 0 no effect, 100 complete control

| SMILES | Plant response rating, Kochia (kochia (Kochia scoparia) [1]; 31 g ai/ha) | Plant response rating, Kochia (kochia (Kochia scoparia) [1]; 125 g ai/ha) | Plant response rating, Sedge, Umbrella [2] | Plant response rating, Ducksalad [3] | Plant response rating, Blackgrass ([4]; 31 g ai/ha) | Plant response rating, Blackgrass ([4]; 125 g ai/ha) | Plant response rating, Foxtail, Giant (Foxtail, Giant [5]; 31 g ai/ha) | Plant response rating, Foxtail, Giant (Foxtail, Giant [5]; 125 g ai/ha) | Plant response rating, Pigweed ([6]; 31 g ai/ha) | Plant response rating, Pigweed ([6]; 125 g ai/ha) | Plant response rating, Barnyardgrass [7] | Plant response rating, Barnyardgrass ([8]; 31 g ai/ha) | Plant response rating, Barnyardgrass ([8]; 125 g ai/ha) | Plant response rating, Rice (rice (Oryza sativa)) | Plant response rating, Pigweed ([9]; 31 g ai/ha) | Plant response rating, Pigweed ([9]; 125 g ai/ha) | Plant response rating, Ryegrass, Italian ([10]; 31 g ai/ha) | Plant response rating, Ryegrass, Italian ([10]; 125 g ai/ha) | Plant response rating, Foxtail, Giant (Foxtail, Giant [11]; 31 g ai/ha) | Plant response rating, Foxtail, Giant (Foxtail, Giant [11]; 125 g ai/ha) | further results |
| --- | --- | --- | --- | --- | --- | --- | --- | --- | --- | --- | --- | --- | --- | --- | --- | --- | --- | --- | --- | --- | --- |
| CC(=O)Oc1c(Cl)nn(C)c(=O)c1-c1c2ccccc2cc2ccccc12 [Compound 6] | 0 | 0 | 95 | 85 | 0 | 0 | 0 | 10 | 80 | 100 | 0 | 0 | 0 | 0 | 100 | 100 | 30 | 30 | 0 | 20 | Plant response rating, Ragweed ([12]; 31 g ai/ha): 90; Plant response rating, Ragweed ([12]; 125 g ai/ha): 90; Plant response rating, Corn (corn (Zea mays); 31 g ai/ha): 0; Plant response rating, Corn (corn (Zea mays); 125 g ai/ha): 0; Plant response rating, Barnyardgrass ([13]; 31 g ai/ha): 0; Plant response rating, Barnyardgrass [13, 19]: 10; Plant response rating, Kochia (kochia (Kochia scoparia) [14]; 31 g ai/ha): 0; Plant response rating, Kochia (kochia (Kochia scoparia) [14]; 125 g ai/ha): 20; Plant response rating, Wheat ([15]; 31 g ai/ha): 10; Plant response rating, Wheat ([15]; 125 g ai/ha): 10; Plant response rating, Ryegrass, Italian ([16]; 31 g ai/ha): 20; Plant response rating, Ryegrass, Italian ([16]; 125 g ai/ha): 70; Plant response rating, Galium ([17]; 31 g ai/ha): 80; Plant response rating, Galium ([17]; 125 g ai/ha): 100; Plant response rating, Ragweed ([18]; 31 g ai/ha): 40; Plant response rating, Ragweed ([18]; 125 g ai/ha): 100 |
| C1COCCN1.Cn1nc(Cl)c(O)c(-c2c3ccccc3cc3ccccc23)c1=O [Compound 7] | 0 | 0 | 100 | 100 | 0 | 10 | 0 | 0 | 60 | 100 | 0 | 0 | 0 | 0 | 100 | 100 | 0 | 0 | 0 | 10 | Plant response rating, Ragweed ([12]; 31 g ai/ha): 90; Plant response rating, Ragweed ([12]; 125 g ai/ha): 100; Plant response rating, Corn (corn (Zea mays); 31 g ai/ha): 10; Plant response rating, Corn (corn (Zea mays); 125 g ai/ha): 10; Plant response rating, Barnyardgrass ([13]; 31 g ai/ha): 0; Plant response rating, Barnyardgrass [13, 19]: 0; Plant response rating, Kochia (kochia (Kochia scoparia) [14]; 31 g ai/ha): 0; Plant response rating, Kochia (kochia (Kochia scoparia) [14]; 125 g ai/ha): 10; Plant response rating, Wheat ([15]; 31 g ai/ha): 0; Plant response rating, Wheat ([15]; 125 g ai/ha): 0; Plant response rating, Ryegrass, Italian ([16]; 31 g ai/ha): 10; Plant response rating, Ryegrass, Italian ([16]; 125 g ai/ha): 60; Plant response rating, Galium ([17]; 31 g ai/ha): 70; Plant response rating, Galium ([17]; 125 g ai/ha): 100; Plant response rating, Ragweed ([18]; 31 g ai/ha): 0; Plant response rating, Ragweed ([18]; 125 g ai/ha): 40 |
